What was measured:
[1] = Clearance in Sprague-Dawley rat at 50 mg/kg, po measured after 24 hrs by LC-MS/MS analysis; type: ADME, organism-based; conditions: in vivo
[2] = Clearance in Sprague-Dawley rat at 5 mg/kg, iv measured after 24 hrs by LC-MS/MS analysis; type: ADME, organism-based; conditions: in vivo
[3] = AUC (0 to infinity) in Sprague-Dawley rat at 5 mg/kg, iv measured after 24 hrs by LC-MS/MS analysis; type: ADME, organism-based; conditions: in vivo
[4] = Volume of distribution in Sprague-Dawley rat at 50 mg/kg, po measured after 24 hrs by LC-MS/MS analysis; type: ADME, organism-based; conditions: in vivo
[5] = Oral bioavailability in Sprague-Dawley rat at 50 mg/kg measured after 24 hrs by LC-MS/MS analysis; type: ADME, organism-based; conditions: in vivo
[6] = Volume of distribution in Sprague-Dawley rat at 5 mg/kg, iv measured after 24 hrs by LC-MS/MS analysis; type: ADME, organism-based; conditions: in vivo
[7] = Cmax in Sprague-Dawley rat at 50 mg/kg, po measured after 24 hrs by LC-MS/MS analysis; type: ADME, organism-based; conditions: in vivo
[8] = Half-life in Sprague-Dawley rat at 5 mg/kg, iv measured after 24 hrs by LC-MS/MS analysis; type: ADME, organism-based; conditions: in vivo
[9] = AUC (0 to infinity) in Sprague-Dawley rat at 50 mg/kg, po measured after 24 hrs by LC-MS/MS analysis; type: ADME, organism-based; conditions: in vivo
[10] = Half-life in Sprague-Dawley rat at 50 mg/kg, po measured after 24 hrs by LC-MS/MS analysis; type: ADME, organism-based; conditions: in vivo
[11] = target: Na(+)/citrate cotransporter (Homo sapiens, UniProt Q86YT5); test: Inhibition of human SLC13A5 transfected in HEK293T cells incubated for 30 mins by D4-citrate uptake assay; type: cell-based
Chain of Na(+)/citrate cotransporter (Q86YT5 whole entry): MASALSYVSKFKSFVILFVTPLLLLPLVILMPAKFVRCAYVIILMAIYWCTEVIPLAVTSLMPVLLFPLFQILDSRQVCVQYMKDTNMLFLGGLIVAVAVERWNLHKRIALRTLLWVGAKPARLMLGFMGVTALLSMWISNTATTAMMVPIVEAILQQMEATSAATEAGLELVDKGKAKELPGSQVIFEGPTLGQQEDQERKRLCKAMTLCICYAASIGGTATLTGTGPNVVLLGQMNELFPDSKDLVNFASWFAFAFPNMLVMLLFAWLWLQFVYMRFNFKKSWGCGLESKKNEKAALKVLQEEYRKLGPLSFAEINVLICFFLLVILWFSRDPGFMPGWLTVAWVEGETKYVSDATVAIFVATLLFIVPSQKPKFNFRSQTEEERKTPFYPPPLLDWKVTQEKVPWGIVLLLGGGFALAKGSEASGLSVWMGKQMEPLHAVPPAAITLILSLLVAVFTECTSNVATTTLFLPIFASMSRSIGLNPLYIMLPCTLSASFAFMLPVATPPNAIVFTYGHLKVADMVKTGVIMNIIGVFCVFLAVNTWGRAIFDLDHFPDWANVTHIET

[12] = Drug accumulation in Sprague-Dawley rat prostate gland at 5 mg/kg, po measured after 2 hrs by LC-MS/MS analysis; type: ADME, organism-based; conditions: in vivo
[13] = Drug accumulation in Sprague-Dawley rat liver at 5 mg/kg, po measured after 2 hrs by LC-MS/MS analysis; type: ADME, organism-based; conditions: in vivo
[14] = Drug accumulation in Sprague-Dawley rat brain at 5 mg/kg, po measured after 2 hrs by LC-MS/MS analysis; type: ADME, organism-based; conditions: in vivo
[15] = Tmax in Sprague-Dawley rat at 50 mg/kg, po measured after 24 hrs by LC-MS/MS analysis; type: ADME, organism-based; conditions: in vivo
HEK-293T = test: Cytotoxicity against HEK293T cells; type: toxicity, cell-based; conditions: human
[16] = Metabolic stability in human plasma assessed as compound remaining measured after 2 hrs by LC-MS/MS analysis; type: ADME, cell-free; conditions: read-out: Stability
[17] = Acute toxicity in C57BL/6J mouse at 50 to 300 mg/kg measured after 7 days; type: organism-based; conditions: in vivo, 168 h, dose 50-300 mg/kg, time 7 day
[18] = Metabolic stability in human liver microsome assessed as compound remaining measured after 2 hrs in presence of NADPH by LC-MS/MS analysis; type: ADME; conditions: microsomes
[19] = Toxicity in C57BL/6J mouse assessed as animal death at 100 mg/kg; type: organism-based; conditions: in vivo
Huh-7 = test: Cytotoxicity against human Huh-7 cells; type: toxicity, cell-based
HepG2 = test: Cytotoxicity against human HepG2 cells; type: toxicity, cell-based
[20] = Metabolic stability in rat liver microsome assessed as compound remaining measured after 2 hrs in presence of NADPH by LC-MS/MS analysis; type: ADME; conditions: liver microsomes, read-out: Stability

SMILES: CC(C)(C)c1ccc(CC[C@@](O)(CC(=O)O)C(=O)O)cc1
- CL/F [1]: 80.8 mL/min/kg
- clearance [2]: 2 mL/min/kg
- AUC(0-inf) [3]: 40400 ng·h/mL
- Vd [4]: 83.96 L/kg
- bioavailability [5]: 1.83%
- Vd [6]: 0.69 L/kg
- Cmax [7]: 1.36 µg/mL
- half-life [8]: 2.61 h
- AUC(0-inf) [9]: 10600 ng·h/mL
- half-life [10]: 12.4 h

SMILES: O=C(O)CC(O)(CCc1ccc(-c2cccc3c2NCCC3)cc1)C(=O)O (stereo unspecified)
- IC50 [11]: 350 nM

SMILES: O=C(O)CC(O)(CCc1ccc(-c2cccc(C(F)(F)F)c2)cc1)C(=O)O (stereo unspecified)
- IC50 [11]: 150 nM

SMILES: CCOc1cccc(-c2ccc(CCC(O)(CC(=O)O)C(=O)O)cc2)c1 (stereo unspecified)
- IC50 [11]: 310 nM

SMILES: O=C(O)CC(O)(CCc1ccc(-c2ccn[nH]2)cc1)C(=O)O (stereo unspecified)
- IC50 [11]: 1180 nM

SMILES: O=C(O)CC(O)(CCc1ccc(-c2ccccc2)cc1)C(=O)O (stereo unspecified)
- Drug uptake [12]: Active
- Drug uptake [13]: Active
- CL/F [1]: 1.17 mL/min/kg
- clearance [2]: 0.667 mL/min/kg
- AUC(0-inf) [3]: 145000 ng·h/mL
- Vd [4]: 0.11 L/kg
- bioavailability [5]: 48.7%
- Drug uptake [14]: Not Active
- Vd [6]: 0.03 L/kg
- IC50 [11]: 67 nM
- Cmax [7]: 288 µg/mL
- half-life [8]: 0.69 h
- AUC(0-inf) [9]: 705000 ng·h/mL
- Tmax [15]: 0.76 h
- half-life [10]: 1.09 h
- Activity (HEK-293T): Non-Toxic
- remaining at 2 h [16]: > 60%
- Activity [17]: Non-Toxic
- Stability [18]: Stable
- Activity [19]: Non-Toxic
- Activity (Huh-7): Non-Toxic
- Activity (HepG2): Non-Toxic
- remaining at 2 h [20]: > 60%

SMILES: COc1ccccc1-c1ccc(CCC(O)(CC(=O)O)C(=O)O)cc1 (stereo unspecified)
- IC50 [11]: 290 nM

SMILES: CC(C)Oc1cccc(-c2ccc(CCC(O)(CC(=O)O)C(=O)O)cc2)c1 (stereo unspecified)
- IC50 [11]: 440 nM

SMILES: CCn1nccc1-c1ccc(CCC(O)(CC(=O)O)C(=O)O)cc1 (stereo unspecified)
- IC50 [11]: 130 nM
- remaining at 2 h [16]: > 60%
- remaining at 2 h [20]: > 60%

SMILES: COc1cccc(-c2ccc(CCC(O)(CC(=O)O)C(=O)O)cc2)c1 (stereo unspecified)
- IC50 [11]: 340 nM

SMILES: O=C(O)CC(O)(CCc1ccc(-c2cccc(OC(F)(F)F)c2)cc1)C(=O)O (stereo unspecified)
- IC50 [11]: 190 nM

SMILES: O=C(O)CC(O)(CCc1ccc(-c2ccccc2C(F)(F)F)cc1)C(=O)O (stereo unspecified)
- IC50 [11]: 210 nM

SMILES: O=C(O)CC(O)(CCc1ccc2ccccc2c1)C(=O)O (stereo unspecified)
- IC50 [11]: 73 nM
- remaining at 2 h [16]: > 60%
- remaining at 2 h [20]: > 60%

SMILES: COc1cc(-c2ccc(CCC(O)(CC(=O)O)C(=O)O)cc2)ccn1 (stereo unspecified)
- IC50 [11]: 860 nM

SMILES: O=C(O)CC(O)(CCc1ccc(N2CCOCC2)cc1)C(=O)O (stereo unspecified)
- IC50 [11]: 860 nM

SMILES: O=C(O)CC(O)(CCc1nc2ccccc2s1)C(=O)O (stereo unspecified)
- IC50 [11]: 160 nM
- remaining at 2 h [16]: > 60%
- remaining at 2 h [20]: > 60%

SMILES: Cn1nccc1-c1ccc(CCC(O)(CC(=O)O)C(=O)O)cc1 (stereo unspecified)
- IC50 [11]: 1970 nM

SMILES: O=C(O)CC(O)(CCc1ccc(-c2ccc3c(c2)OCO3)cc1)C(=O)O (stereo unspecified)
- IC50 [11]: 110 nM

SMILES: CCCOc1cccc(-c2ccc(CCC(O)(CC(=O)O)C(=O)O)cc2)c1 (stereo unspecified)
- IC50 [11]: 270 nM

Reference: ChEMBL document CHEMBL5543131, “Discovery of Highly Potent Solute Carrier 13 Member 5 (SLC13A5) Inhibitors for the Treatment of Hyperlipidemia” (J Med Chem, 2024)
